Experimental data: ChEMBL document CHEMBL3994575, “Helixconstraints and amino acid substitution in GLP-1 increase cAMP and insulin secretion but not beta-arrestin 2 signaling” (Eur J Med Chem, 2017)
pEC50, pKi: −log10 of the molar value. Positions of bridges follow the written chain, without caps; N, C: chain ends. Residues, ends and D or L forms follow the SMILES beside them.

What was measured:
[1] = biological target: T1, Glucagon-like peptide 1 receptor (Homo sapiens, UniProt P43220); assay: Agonist activity at human GLP1R expressed in CHOK1 cells assessed as induction of beta-galactosidase-tagged beta-arrestin2 recruitment incubated for 90 mins by PathHunter enzyme complementation assay; type: cell-based
[2] = biological target: T1, Glucagon-like peptide 1 receptor; assay: Agonist activity at human GLP1R expressed in CHO cells assessed as cAMP accumulation incubated for 30 mins by LANCE assay; type: functional, cell-based
[3] = biological target: T1, Glucagon-like peptide 1 receptor; assay: Displacement of [125I]-GLP (7 to 36 residues) from human GLP1R expressed in CHO cell membranes incubated for 30 mins measured after 10 hrs by scintillation proximity assay

T1 sequence (P43220 whole entry): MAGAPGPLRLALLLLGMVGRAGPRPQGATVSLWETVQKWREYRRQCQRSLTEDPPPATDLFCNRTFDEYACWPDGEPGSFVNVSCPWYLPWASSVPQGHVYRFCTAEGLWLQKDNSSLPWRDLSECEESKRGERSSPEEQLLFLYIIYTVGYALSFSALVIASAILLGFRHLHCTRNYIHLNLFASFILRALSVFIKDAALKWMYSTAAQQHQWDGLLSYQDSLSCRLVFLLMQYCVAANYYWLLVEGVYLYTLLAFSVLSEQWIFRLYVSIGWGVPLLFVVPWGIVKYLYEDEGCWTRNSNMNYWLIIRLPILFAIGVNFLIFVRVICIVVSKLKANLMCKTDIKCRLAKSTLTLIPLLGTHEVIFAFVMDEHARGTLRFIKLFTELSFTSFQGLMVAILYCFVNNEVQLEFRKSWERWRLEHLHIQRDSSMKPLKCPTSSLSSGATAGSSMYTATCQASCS

| SMILES | pEC50 [1] | pEC50 [2] | pKi [3] |
| --- | --- | --- | --- |
| CC[C@H](C)[C@H](NC(=O)[C@H](Cc1ccccc1)NC(=O)[C@H](CCC(=O)O)NC(=O)[C@H](CCCCN)NC(=O)[C@H](C)NC(=O)[C@H](C)NC(=O)[C@H](CCC(N)=O)NC(=O)CNC(=O)[C@H](CCC(=O)O)NC(=O)[C@H](CC(C)C)NC(=O)[C@H](Cc1ccc(O)cc1)NC(=O)[C@H](CO)NC(=O)[C@H](CO)NC(=O)[C@@H](NC(=O)[C@H](CC(=O)O)NC(=O)[C@H](CO)NC(=O)[C@@H](NC(=O)[C@H](Cc1ccccc1)NC(=O)[C@@H](NC(=O)CNC(=O)[C@@H]1CSCC(=O)N[C@@H](Cc2cnc[nH]2)C(=O)N[C@@H](C)C(=O)N1)[C@@H](C)O)[C@@H](C)O)C(C)C)C(=O)N[C@@H](C)C(=O)N[C@@H](Cc1c[nH]c2ccccc12)C(=O)N[C@@H](CC(C)C)C(=O)N[C@H](C(=O)N[C@@H](CCCCN)C(=O)NCC(=O)N[C@@H](CCCNC(=N)N)C(=O)NCC(N)=O)C(C)C | < 5.00 | 6.52 | – |
| CC[C@H](C)[C@H](NC(=O)[C@H](Cc1ccccc1)NC(=O)[C@H](CCC(=O)O)NC(=O)[C@H](CCCCN)NC(=O)[C@H](C)NC(=O)[C@H](C)NC(=O)[C@H](CCC(N)=O)NC(=O)CNC(=O)[C@H](CCC(=O)O)NC(=O)[C@H](CC(C)C)NC(=O)[C@H](Cc1ccc(O)cc1)NC(=O)[C@H](CO)NC(=O)[C@H](CO)NC(=O)[C@@H](NC(=O)[C@H](CC(=O)O)NC(=O)[C@H](CO)NC(=O)[C@@H](NC(=O)[C@H](Cc1ccccc1)NC(=O)[C@@H]1CSC(=O)CN[C@@H](Cc2cnc[nH]2)C(=O)N[C@@H](C)C(=O)N[C@@H](CCC(=O)O)C(=O)NCC(=O)N1)[C@@H](C)O)C(C)C)C(=O)N[C@@H](C)C(=O)N[C@@H](Cc1c[nH]c2ccccc12)C(=O)N[C@@H](CC(C)C)C(=O)N[C@H](C(=O)N[C@@H](CCCCN)C(=O)NCC(=O)N[C@@H](CCCNC(=N)N)C(=O)NCC(N)=O)C(C)C | < 5.00 | < 5.00 | < 7.30 |
| CC[C@H](C)[C@H](NC(=O)[C@H](Cc1ccccc1)NC(=O)[C@H](CCC(=O)O)NC(=O)[C@H](CCCCN)NC(=O)[C@H](C)NC(=O)[C@H](C)NC(=O)[C@H](CCC(N)=O)NC(=O)[C@H](C)NC(=O)[C@H](CCC(=O)O)NC(=O)[C@H](CC(C)C)NC(=O)[C@H](Cc1ccc(O)cc1)NC(=O)[C@H](CO)NC(=O)[C@H](CO)NC(=O)[C@@H](NC(=O)[C@H](CC(=O)O)NC(=O)[C@H](CO)NC(=O)[C@@H](NC(=O)[C@H](Cc1ccccc1)NC(=O)[C@@H](NC(=O)CNC(=O)[C@H](CCC(=O)O)NC(=O)[C@H](C)NC(=O)[C@@H](N)Cc1cnc[nH]1)[C@@H](C)O)[C@@H](C)O)C(C)C)C(=O)N[C@H]1CCCCNC(=O)C[C@@H](C(=O)NCC(=O)N[C@@H](CCCNC(=N)N)C(=O)NCC(N)=O)NC(=O)[C@H](C(C)C)NC(=O)[C@H](CC(C)C)NC(=O)[C@H](Cc2c[nH]c3ccccc23)NC1=O (H-HAEGTFTSDVSSYLEAQAAKEFIKWLVDGRG-NH2; lactam 24-28) | 7.96 | 10.70 | 8.77 |
| CC[C@H](C)[C@H](NC(=O)[C@H](Cc1ccccc1)NC(=O)[C@H](CCC(=O)O)NC(=O)[C@H](CCCCN)NC(=O)[C@H](C)NC(=O)[C@H](C)NC(=O)[C@H](CCC(N)=O)NC(=O)[C@@H]1CCCN1C(=O)[C@H](CCC(=O)O)NC(=O)[C@H](CC(C)C)NC(=O)[C@H](Cc1ccc(O)cc1)NC(=O)[C@H](CO)NC(=O)[C@H](CO)NC(=O)[C@@H](NC(=O)[C@H](CC(=O)O)NC(=O)[C@H](CO)NC(=O)[C@@H](NC(=O)[C@H](Cc1ccccc1)NC(=O)[C@@H](NC(=O)CNC(=O)[C@H](CCC(=O)O)NC(=O)[C@H](C)NC(=O)[C@@H](N)Cc1cnc[nH]1)[C@@H](C)O)[C@@H](C)O)C(C)C)C(=O)N[C@H]1CCCCNC(=O)C[C@@H](C(=O)NCC(=O)N[C@@H](CCCNC(=N)N)C(=O)NCC(N)=O)NC(=O)[C@H](C(C)C)NC(=O)[C@H](CC(C)C)NC(=O)[C@H](Cc2c[nH]c3ccccc23)NC1=O (H-HAEGTFTSDVSSYLEPQAAKEFIKWLVDGRG-NH2; lactam 24-28) | 7.48 | 9.46 | 7.74 |

Next, values leading:

| pEC50 [1] | pEC50 [2] | pKi [3] | SMILES |
| --- | --- | --- | --- |
| 7.92 | 10.68 | 8.85 | CC[C@H](C)[C@H](NC(=O)[C@H](Cc1ccccc1)NC(=O)[C@H](CCC(=O)O)NC(=O)[C@H](CCCCN)NC(=O)[C@H](C)NC(=O)[C@H](C)NC(=O)[C@H](CCC(N)=O)NC(=O)CNC(=O)[C@H](CCC(=O)O)NC(=O)[C@@H]1CC(=O)NCCCC[C@H](NC(=O)[C@H](CC(=O)O)NC(=O)[C@H](CO)NC(=O)[C@@H](NC(=O)[C@H](Cc2ccccc2)NC(=O)[C@@H](NC(=O)CNC(=O)[C@H](CCC(=O)O)NC(=O)[C@H](C)NC(=O)[C@@H](N)Cc2cnc[nH]2)[C@@H](C)O)[C@@H](C)O)C(=O)N[C@@H](CO)C(=O)N[C@@H](CO)C(=O)N[C@@H](Cc2ccc(O)cc2)C(=O)N1)C(=O)N[C@H]1CCCCNC(=O)C[C@@H](C(=O)NCC(=O)N[C@@H](CCCNC(=N)N)C(=O)NCC(N)=O)NC(=O)[C@H](C(C)C)NC(=O)[C@H](CC(C)C)NC(=O)[C@H](Cc2c[nH]c3ccccc23)NC1=O (H-HAEGTFTSDKSSYDEGQAAKEFIKWLVDGRG-NH2; lactam 10-14, 24-28) |
| 8.17 | 10.89 | 9.03 | CC[C@H](C)[C@H](NC(=O)[C@H](Cc1ccccc1)NC(=O)[C@H](CCC(=O)O)NC(=O)[C@H](CCCCN)NC(=O)[C@H](C)NC(=O)[C@H](C)NC(=O)[C@H](CCC(N)=O)NC(=O)[C@@H]1CC(=O)NCCCC[C@H](NC(=O)[C@H](CO)NC(=O)[C@@H](NC(=O)[C@H](CC(=O)O)NC(=O)[C@H](CO)NC(=O)[C@@H](NC(=O)[C@H](Cc2ccccc2)NC(=O)[C@@H](NC(=O)CNC(=O)[C@H](CCC(=O)O)NC(=O)[C@H](C)NC(=O)[C@@H](N)Cc2cnc[nH]2)[C@@H](C)O)[C@@H](C)O)C(C)C)C(=O)N[C@@H](Cc2ccc(O)cc2)C(=O)N[C@@H](CC(C)C)C(=O)N[C@@H](CCC(=O)O)C(=O)N1)C(=O)N[C@H]1CCCCNC(=O)C[C@@H](C(=O)NCC(=O)N[C@@H](CCCNC(=N)N)C(=O)NCC(N)=O)NC(=O)[C@H](C(C)C)NC(=O)[C@H](CC(C)C)NC(=O)[C@H](Cc2c[nH]c3ccccc23)NC1=O (H-HAEGTFTSDVSKYLEDQAAKEFIKWLVDGRG-NH2; lactam 12-16, 24-28) |
| – | 10.30 | – | CC[C@H](C)[C@H](NC(=O)[C@H](Cc1ccccc1)NC(=O)[C@H](CCC(=O)O)NC(=O)[C@H](CCCCN)NC(=O)[C@H](C)NC(=O)[C@H](C)NC(=O)[C@H](CCC(N)=O)NC(=O)[C@@H]1CCC(=O)NCCCC[C@H](NC(=O)[C@H](CO)NC(=O)[C@@H](NC(=O)[C@H](CC(=O)O)NC(=O)[C@H](CO)NC(=O)[C@@H](NC(=O)[C@H](Cc2ccccc2)NC(=O)[C@@H](NC(=O)CNC(=O)[C@H](CCC(=O)O)NC(=O)[C@H](C)NC(=O)[C@@H](N)Cc2cnc[nH]2)[C@@H](C)O)[C@@H](C)O)C(C)C)C(=O)N[C@@H](Cc2ccc(O)cc2)C(=O)N[C@@H](CC(C)C)C(=O)N[C@@H](CCC(=O)O)C(=O)N1)C(=O)N[C@H]1CCCCNC(=O)C[C@@H](C(=O)NCC(=O)N[C@@H](CCCNC(=N)N)C(=O)NCC(N)=O)NC(=O)[C@H](C(C)C)NC(=O)[C@H](CC(C)C)NC(=O)[C@H](Cc2c[nH]c3ccccc23)NC1=O (H-HAEGTFTSDVSKYLEEQAAKEFIKWLVDGRG-NH2; lactam 12-16, 24-28) |
